Reference: PubChem BioAssay (NCI)
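96-well plates; 48 h exposure; 5 concentrations. Endpoints by linear interpolation between flanking doses. Not reached: highest tested concentration assigned. The concentration for 50% growth inhibition is given as GI50. The concentration for full growth arrest is given as TGI.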

Assays:
Assay in all cases: inhibition of tumour cell growth, NCI panel, 48 h
786-0 renal = test system: 786-0 renal
A498 renal = test system: A498 renal
A549 NSCLC = test system: A549 NSCLC
ACHN renal = test system: ACHN renal
BT-549 breast = test system: BT-549 breast
CAKI-1 renal = test system: CAKI-1 renal
COLO 205 colon = test system: COLO 205 colon
DU-145 prostate = test system: DU-145 prostate
EKVX NSCLC = test system: EKVX NSCLC
HCC-2998 colon = test system: HCC-2998 colon
HCT-116 colon = test system: HCT-116 colon
HCT-15 colon = test system: HCT-15 colon
HL-60(TB) leukemia = test system: HL-60(TB) leukemia
HOP-62 NSCLC = test system: HOP-62 NSCLC
HOP-92 NSCLC = test system: HOP-92 NSCLC
HS 578T breast = test system: HS 578T breast
IGROV1 ovarian = test system: IGROV1 ovarian
K-562 leukemia = test system: K-562 leukemia
LOX IMVI melanoma = test system: LOX IMVI melanoma
M14 melanoma = test system: M14 melanoma
MALME-3M melanoma = test system: MALME-3M melanoma
MCF7 breast = test system: MCF7 breast
MDA-MB-231 breast = test system: MDA-MB-231 breast
MDA-MB-435 = test system: MDA-MB-435
MDA-MB-468 breast = test system: MDA-MB-468 breast
MOLT-4 leukemia = test system: MOLT-4 leukemia
NCI-H226 lung = test system: NCI-H226 lung
NCI-H23 lung = test system: NCI-H23 lung
NCI-H460 lung = test system: NCI-H460 lung
NCI-H522 lung = test system: NCI-H522 lung
NCI/ADR-RES ovarian = test system: NCI/ADR-RES ovarian
OVCAR-5 ovarian = test system: OVCAR-5 ovarian
OVCAR-8 ovarian = test system: OVCAR-8 ovarian
PC-3 prostate = test system: PC-3 prostate
RPMI-8226 leukemia = test system: RPMI-8226 leukemia
RXF 393 renal = test system: RXF 393 renal
SF-268 CNS = test system: SF-268 CNS
SF-295 CNS = test system: SF-295 CNS
SF-539 CNS = test system: SF-539 CNS
SK-MEL-2 melanoma = test system: SK-MEL-2 melanoma
SK-MEL-28 melanoma = test system: SK-MEL-28 melanoma
SK-MEL-5 melanoma = test system: SK-MEL-5 melanoma
SK-OV-3 ovarian = test system: SK-OV-3 ovarian
SN12C renal = test system: SN12C renal
SNB-19 CNS = test system: SNB-19 CNS
SNB-75 CNS = test system: SNB-75 CNS
SW-620 colon = test system: SW-620 colon
TK-10 renal = test system: TK-10 renal
U251 CNS = test system: U251 CNS
UACC-257 melanoma = test system: UACC-257 melanoma
UACC-62 melanoma = test system: UACC-62 melanoma
UO-31 renal = test system: UO-31 renal

O=C(NN1C(=O)/C(=C/C=C/c2ccc([N+](=O)[O-])o2)SC1=S)c1cccc(O)c1
GI50 (786-0 renal): 1620 nM
TGI (786-0 renal): 3.02 µM
GI50 (A498 renal): 19.7 µM
TGI (A498 renal): 33.8 µM
GI50 (A549 NSCLC): 2920 nM
TGI (A549 NSCLC): 11.6 µM
GI50 (ACHN renal): 1640 nM
TGI (ACHN renal): 3000 nM
GI50 (BT-549 breast): 492 nM
TGI (BT-549 breast): 1790 nM
GI50 (CAKI-1 renal): 1570 nM
TGI (CAKI-1 renal): 2920 nM
GI50 (COLO 205 colon): 1600 nM
TGI (COLO 205 colon): 3.08 µM
GI50 (DU-145 prostate): 2120 nM
TGI (DU-145 prostate): 4.48 µM
GI50 (EKVX NSCLC): 1490 nM
TGI (EKVX NSCLC): 2900 nM
GI50 (HCC-2998 colon): 1740 nM
TGI (HCC-2998 colon): 3.15 µM
GI50 (HCT-116 colon): 233 nM
TGI (HCT-116 colon): 630 nM
GI50 (HCT-15 colon): 167 nM
TGI (HCT-15 colon): 371 nM
GI50 (HL-60(TB) leukemia): 2120 nM
TGI (HL-60(TB) leukemia): 5.49 µM
GI50 (HOP-62 NSCLC): 1730 nM
TGI (HOP-62 NSCLC): 3.19 µM
GI50 (HOP-92 NSCLC): 1230 nM
TGI (HOP-92 NSCLC): 2820 nM
GI50 (HS 578T breast): 2130 nM
TGI (HS 578T breast): 7.7 µM
GI50 (IGROV1 ovarian): 1390 nM
TGI (IGROV1 ovarian): 2690 nM
GI50 (K-562 leukemia): 222 nM
TGI (K-562 leukemia): 1100 nM
GI50 (LOX IMVI melanoma): 167 nM
TGI (LOX IMVI melanoma): 323 nM
GI50 (M14 melanoma): 282 nM
TGI (M14 melanoma): 921 nM
GI50 (MALME-3M melanoma): 205 nM
TGI (MALME-3M melanoma): 447 nM
GI50 (MCF7 breast): 1240 nM
TGI (MCF7 breast): 2960 nM
GI50 (MDA-MB-231 breast): 253 nM
TGI (MDA-MB-231 breast): 737 nM
GI50 (MDA-MB-435): 675 nM
TGI (MDA-MB-435): 2110 nM
GI50 (MDA-MB-468 breast): 1710 nM
TGI (MDA-MB-468 breast): 3.4 µM
GI50 (MOLT-4 leukemia): 295 nM
TGI (MOLT-4 leukemia): 1280 nM
GI50 (NCI-H226 lung): 393 nM
TGI (NCI-H226 lung): 1580 nM
GI50 (NCI-H23 lung): 1010 nM
TGI (NCI-H23 lung): 2260 nM
GI50 (NCI-H460 lung): 1630 nM
TGI (NCI-H460 lung): 3.71 µM
GI50 (NCI-H522 lung): 185 nM
TGI (NCI-H522 lung): 367 nM
GI50 (NCI/ADR-RES ovarian): 1960 nM
TGI (NCI/ADR-RES ovarian): 4.63 µM
GI50 (OVCAR-5 ovarian): 1850 nM
TGI (OVCAR-5 ovarian): 3.38 µM
GI50 (OVCAR-8 ovarian): 571 nM
TGI (OVCAR-8 ovarian): 2540 nM
GI50 (PC-3 prostate): 1880 nM
TGI (PC-3 prostate): 4.18 µM
GI50 (RPMI-8226 leukemia): 387 nM
TGI (RPMI-8226 leukemia): 2190 nM
GI50 (RXF 393 renal): 1250 nM
TGI (RXF 393 renal): 2520 nM
GI50 (SF-268 CNS): 1950 nM
TGI (SF-268 CNS): 4.81 µM
GI50 (SF-295 CNS): 2120 nM
TGI (SF-295 CNS): 5.01 µM
GI50 (SF-539 CNS): 1580 nM
TGI (SF-539 CNS): 2950 nM
GI50 (SK-MEL-2 melanoma): 1070 nM
TGI (SK-MEL-2 melanoma): 2440 nM
GI50 (SK-MEL-28 melanoma): 1660 nM
TGI (SK-MEL-28 melanoma): 3.03 µM
GI50 (SK-MEL-5 melanoma): 662 nM
TGI (SK-MEL-5 melanoma): 1950 nM
GI50 (SK-OV-3 ovarian): 1910 nM
TGI (SK-OV-3 ovarian): 4.31 µM
GI50 (SN12C renal): 256 nM
TGI (SN12C renal): 1150 nM
GI50 (SNB-19 CNS): 1810 nM
TGI (SNB-19 CNS): 3.56 µM
GI50 (SNB-75 CNS): 1280 nM
TGI (SNB-75 CNS): 5.87 µM
GI50 (SW-620 colon): 209 nM
TGI (SW-620 colon): 485 nM
GI50 (TK-10 renal): 1780 nM
TGI (TK-10 renal): 3.49 µM
GI50 (U251 CNS): 1390 nM
TGI (U251 CNS): 2890 nM
GI50 (UACC-257 melanoma): 1740 nM
TGI (UACC-257 melanoma): 3.54 µM
GI50 (UACC-62 melanoma): 587 nM
TGI (UACC-62 melanoma): 1930 nM
GI50 (UO-31 renal): 1410 nM
TGI (UO-31 renal): 2720 nM
